Test results from ChEMBL document CHEMBL1121512, “1-[Ethoxyamino)methyl]-1,3,4,5-tetrahydro-7,8-dimethoxy-2-benzoxepins: a new class of antianaphylactic agents” (1980).

Columns and labels:
Format in all cases: functional
Rattus norvegicus [1] = assay: % inhibition against anaphylactic response in rat at dose 50 mg/kg administered orally after 60 min; conditions: 1 h, route oral
Rattus norvegicus [2] = assay: % inhibition against anaphylactic response in rat at dose 50 mg/kg administered orally after 120 min; conditions: 2 h, route oral
Rattus norvegicus [3] = assay: % inhibition against anaphylactic response in rat at dose 10 mg/kg administered orally after 60 min; conditions: 1 h, route oral

Row | SMILES | inhibition in vivo at 50 mg/kg (Rattus norvegicus [1]) | inhibition in vivo at 50 mg/kg (Rattus norvegicus [2]) | inhibition in vivo at 10 mg/kg (Rattus norvegicus [3])
1 | COc1cc2c(cc1OC)C(COCCNCCO)OCCC2 (stereo unspecified) | 0% | 0% | 
2 | COc1cc2c(cc1OC)C(COCCN1CCN(c3ccccc3OC)CC1)OCCC2 (stereo unspecified) | 100% | 20% | 
3 | COc1cc2c(cc1OC)C(COCCN1CCN(c3ccccn3)CC1)OCCC2 (stereo unspecified) | 94% | 35% | 
4 | O=C(O)c1cc(=O)c2c(OCC(O)COc3cccc4oc(C(=O)O)cc(=O)c34)cccc2o1 [CROMOLYN SODIUM] |  |  | 100%
5 | COc1cc2c(cc1OC)C(COCCN1CCN(C)CC1)OCCC2 (stereo unspecified) | 0% | 0% | 
6 | COc1cc2c(cc1OC)C(COCCN1CCN(c3ccc(F)cc3)CC1)OCCC2 (stereo unspecified) | 52% | 0% | 
